“And” between values parts separate entries of the source, which are not always exact repeats. Equal entries are not always repeated.
System: CMV
Test: Study HDP-CDV-201: prevention or control of CMV infection in R+ HSCT recipients (efficacy)
Type: in vivo, human (adult allogeneic HSCT recipients)
Conditions: for Time to CMV DNAemia (≧100 copies/mL), Mean / Number of Subjects who had CMV DNAemia (≧100 copies/mL) by the end of study / Time to CMV DNAemia (≧100 copies/mL), Median: CMV DNA negative at baseline; for Difference (HDP-CDV minus placebo) in rate of CMV DNAemia ≧1,000 copies/mL / Rate of CMV DNAemia ≧1,000 copies/mL during the treatment period: CMV modified strata: positive; for Discontinuation: Emergence of CMV disease / Discontinuation: Initiation of alternate CMV therapy: active treatment period
Experimental: The clinical study of the current invention (HDP-CDV-201) was a 9-11 week randomized, placebo-controlled, double-blind, dose-escalation study (40 mg weekly [QW], 100 mg QW, 200 mg QW, 200 mg twice-weekly [BIW], and 100 mg BIW) of HDP-CDV for the prevention of CMV infection post-HCT. Treatment was initiated at the time of engraftment and continued until Week 13 post-HCT. HDP-CDV, at various doses, was active and well tolerated in the prevention CMV infection or disease.
Clinical Studies of HDP-CDV were performed and described in detail in the following Examples. For example, HDP-CDV-201 is a placebo-controlled, dose-escalating trial in HSCT CMV (R+) recipients, evaluating the ability of HDP-CDV to prevent or control CMV infection was carried out. Five cohorts were established in which participants or subjects received either placebo or the HDP-CDV orally, in doses ranging from 40 mg weekly (QW) to 200 mg twice weekly (BIW). Subjects who were post-HSCT were enrolled at the time of engraftment and randomized to HDP-CDV or placebo (3 to 1 ratio) and received blinded therapy until approximately 100 day post-transplantation. HDP-CDV doses were 40 mg QW, 100 mg QW, 200 mg QW, 200 mg BIW and 100 mg BIW. Escalation to the next dose was decided by the data monitoring committee after review of the safety data from the previous Cohort. Subjects who developed CMV disease or CMV infection requiring pre-emptive therapy with local standard of care were discontinued from blinded therapy and followed for 4 weeks. Subjects who completed treatment with blinded therapy were followed for 8 weeks post-therapy.
The primary endpoint was defined as the incidence of CMV disease at any time during treatment or CMV DNAemia≧200 copies/mL at the end of treatment. All subjects who received at least one dose of drug/placebo and had at least one efficacy evaluation post baseline were included in the primary analysis, regardless of their CMV DNAemia status (negative or positive) at baseline (mITT population). Results for the pooled HDP-CDV Cohorts and for each Cohort separately were analyzed versus that for pooled placebo.
The primary efficacy measure for this study was treatment failure, defined as the occurrence of CMV infection, defined as CMV DNAemia>200 copies/mL at the End of Treatment or diagnosis of CMV disease at any time during the treatment period. For the analysis, the following definitions apply:
For subjects who completed the treatment phase of the study, the End of Treatment was defined as the latest assessment from date of the last dose of study drug and up to 7 days for QW dosing, or the date of the last dose of study drug and up to 4 days for BIW dosing. For subjects who discontinued during the treatment phase of the study, the End of Treatment was defined as the date of the last dose of study drug.
The time to event was defined as the period between FDD and date of first occurrence of the event of interest (inclusive). The events included onset of CMV DNAemia, onset of CMV disease, and discontinuation because of excluded anti-CMV medications. Time to event/onset was derived as (the event/onset date—FDD)+1.
As detailed in the Statistical Analysis Plan, a modified CMV stratum was defined prior to conducting the statistical analysis based upon polymerase chain reaction (PCR) results from the central laboratory. If any positive CMV DNA value in plasma was collected before the first dose of study drug (including Screening, Pre-dose, (combined Screening/Pre-dose), CMV for stratification, and FDD), then the subject was placed into the modified CMV positive (≧100 copies/mL) stratum, otherwise the subject was in the modified CMV negative stratum. […]

[1] = 200 mg BIW/QW, modified CMV negative stratum
[2] = 200 mg BIW, CMV modified strata: negative
[3] = 200 mg BIW, modified CMV negative stratum
[4] = 200 mg QW, CMV modified strata: negative

SMILES: CCCCCCCCCCCCCCCCOCCCOP(=O)(O)COC(CO)Cn1ccc(N)nc1=O (stereo not drawn) [HDP-CDV]
- Time to CMV DNAemia (≧100 copies/mL), Mean (100 mg QW, treatment period, censored values not included): 38.8 days
- Number of Subjects who had CMV DNAemia (≧100 copies/mL) by the end of study (100 mg QW, whole study period): 8
- Time to CMV DNAemia (≧100 copies/mL), Mean (100 mg QW, whole study period): 53.4 days
- Time to CMV DNAemia (≧100 copies/mL), Median (100 mg QW, whole study period): 38.5 days
- % CMV Event Rate: Incidence of CMV DNAemia >100 copies/mL During Treatment (Fisher analysis, ref 14.3.3.2.1) [1]: 4 (18.2%) subjects (%)
- % CMV Event Rate: Incidence of CMV DNAemia ≧1,000 copies/mL at any time during treatment [1]: 0 subjects (%)
- Difference (HDP-CDV minus placebo) in infection rate [2]: −16.2%
- Difference (HDP-CDV minus placebo) in rate of CMV DNAemia ≧1,000 copies/ml [2]: −31.9%
- Rate of CMV DNAemia ≧1,000 copies/ml during the treatment period [2]: 0%
- Rate of CMV Disease or End of Treatment CMV Infection [2]: 13.6%
- Difference (HDP-CDV minus placebo) in rate of CMV DNAemia ≧1,000 copies/mL (200 mg BIW): −58.3%
- Rate of CMV DNAemia ≧1,000 copies/mL during the treatment period (200 mg BIW): 25%
- Rate of CMV Disease or End of Treatment CMV Infection (200 mg BIW, aGVHD randomization strata: negative): 24.1%
- Difference (HDP-CDV minus placebo) in infection rate (200 mg BIW, aGVHD strata: negative): −7.9%
- Discontinuation: Emergence of CMV disease (200 mg BIW): 0 Subject n (%)
- Discontinuation: Initiation of alternate CMV therapy (200 mg BIW): 5 (16.7%) Subject n (%)
- Difference (HDP-CDV minus placebo) in rate of CMV DNAemia ≧1000 copies/mL (200 mg BIW, mITT): −35.7%
- Difference (HDP-CDV minus placebo) in rate of CMV disease or end of treatment CMV infection (200 mg BIW, mITT): −14.0%
- Subjects Receiving Antiviral Therapy and/or had CMV disease (200 mg BIW, mITT): 5 (16.7%) subjects (%)
- Subjects without a CMV event (200 mg BIW, mITT): 25 (83.3%) subjects (%)
- Time to Antiviral Therapy, Median (200 mg BIW, mITT): 15.0 days
- Rate of CMV Disease or End of Treatment CMV Infection (≧200 copies/ml) (200 mg BIW, mITT, missing=infection): 23% and 23.3%
- Rate of CMV DNAemia ≧1000 copies/mL during the treatment period (200 mg BIW, mITT, post hoc): 7% and 6.7%
- Time to Antiviral Therapy, Mean (200 mg BIW, mITT, censored values not included): 21.6 days
- Subjects Who Had CMV-related Event (CMV disease, CMV DNAemia ≧1,000 c/mL or initiation of anti-CMV treatment) [3]: 3 (13.6%) subjects (%)
- Subjects without a CMV-related event [3]: 20 (86.4%) subjects (%)
- Developed CMV DNAemia (≧100 copies/mL) during the treatment period (200 mg BIW, plasma CMV DNA negative at baseline, mITT): 4 (17.4%) N(%)
- Time to CMV DNAemia (≧100 copies/mL), Median (200 mg BIW, treatment period): 25.5 days
- Time to CMV DNAemia (≧100 copies/mL), Mean (200 mg BIW, treatment period, censored values not included): 24.8 days
- Median Survival Time to CMV DNAemia (Kaplan-Meier) (200 mg BIW, whole study period): 130 days
- Number of Subjects who had CMV DNAemia (≧100 copies/mL) by the end of study (200 mg BIW, whole study period): 9
- Time to CMV DNAemia (≧100 copies/mL), Mean (200 mg BIW, whole study period): 49.0 days
- Time to CMV DNAemia (≧100 copies/mL), Median (200 mg BIW, whole study period): 42.0 days
- Difference (HDP-CDV minus placebo) in infection rate [4]: −9.1%
- Difference (HDP-CDV minus placebo) in rate of CMV DNAemia ≧1,000 copies/ml [4]: −25.0%
- Rate of CMV DNAemia ≧1,000 copies/ml during the treatment period [4]: 6.9%
- Rate of CMV Disease or End of Treatment CMV Infection [4]: 20.7%
- Difference (HDP-CDV minus placebo) in rate of CMV DNAemia ≧1,000 copies/mL (200 mg QW): −33.3%
- Rate of CMV DNAemia ≧1,000 copies/mL during the treatment period (200 mg QW): 50.0%
- Rate of CMV Disease or End of Treatment CMV Infection (200 mg QW, aGVHD randomization strata: negative): 30.8%
- Difference (HDP-CDV minus placebo) in infection rate (200 mg QW, aGVHD strata: negative): −1.3%
- Discontinuation: Emergence of CMV disease (200 mg QW): 0 Subject n (%)
- Discontinuation: Initiation of alternate CMV therapy (200 mg QW): 7 (17.9%) Subject n (%)
- Difference (HDP-CDV minus placebo) in rate of CMV DNAemia ≧1000 copies/mL (200 mg QW, mITT): −24.4%
- Difference (HDP-CDV minus placebo) in rate of CMV disease or end of treatment CMV infection (200 mg QW, mITT): −6.5%

From US20140303092A1 (CHIMERIX, INC., priority 2011, published 2014)
